Reference: the supplement of paper PMC10307832

Key:
Experiment in all cases: relative viability (nuclei count vs DMSO), 5 days (fraction); higher = more cells survive
[1] = system: A549
Method in brief: (§1)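 The day after seeding in 1536-well plates, lung cancer cell lines were treated by pin tool with a single drug, or with a fixed anchor-drug dose together with five library-drug doses (not always all listed) in √10 steps. After 5 days, a combined fix-and-stain solution (final 0.05% Triton X-100, 1% formaldehyde, 1 ug/ml Hoechst) was added. Nuclei counted on 4× images gave relative viability as treated counts over vehicle counts, reported as the median of duplicate plates.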

[2] = system: Calu-6
Method in brief: as §1

[3] = system: EBC-1
Method in brief: as §1

[4] = system: IA-LM
Method in brief: as §1

[5] = system: NCI-H1299
Method in brief: as §1

[6] = system: NCI-H1703
Method in brief: as §1

[7] = system: NCI-H1993
Method in brief: as §1

[8] = system: NCI-H23
Method in brief: as §1

[9] = system: NCI-H596
Method in brief: as §1

## C=C1C(=O)O[C@@H](CCCCCCCC)[C@@H]1C(=O)O [C-75] + C[C@@H](Oc1cc(-c2cnn(C3CCNCC3)c2)cnc1N)c1c(Cl)ccc(F)c1Cl [Crizotinib] (partner 1 µM)
[1]; first compound 0.08 µM
  relative viability: 0.763
[1]; first compound 0.253 µM
  relative viability: 0.715
[1]; first compound 0.8 µM
  relative viability: 0.651
[1]; first compound 2.53 µM
  relative viability: 0.81
[1]; first compound 8 µM
  relative viability: 0.593
[2]; first compound 0.08 µM
  relative viability: 0.816
[2]; first compound 0.253 µM
  relative viability: 0.824
[2]; first compound 0.8 µM
  relative viability: 0.711
[2]; first compound 2.53 µM
  relative viability: 0.623
[2]; first compound 8 µM
  relative viability: 0.761
[3]; first compound 0.08 µM
  relative viability: 0.179
[3]; first compound 0.253 µM
  relative viability: 0.184
[3]; first compound 0.8 µM
  relative viability: 0.225
[3]; first compound 2.53 µM
  relative viability: 0.179
[3]; first compound 8 µM
  relative viability: 0.211
[4]; first compound 0.08 µM
  relative viability: 0.956
[4]; first compound 0.253 µM
  relative viability: 1.09
[4]; first compound 8 µM
  relative viability: 0.504
[5]; first compound 0.08 µM
  relative viability: 0.939
[5]; first compound 0.253 µM
  relative viability: 0.932
[5]; first compound 0.8 µM
  relative viability: 0.967
[5]; first compound 2.53 µM
  relative viability: 0.853
[5]; first compound 8 µM
  relative viability: 0.927
[6]; first compound 0.08 µM
  relative viability: 0.688
[6]; first compound 0.8 µM
  relative viability: 0.495
[6]; first compound 2.53 µM
  relative viability: 0.683
[6]; first compound 8 µM
  relative viability: 0.587
[7]; first compound 0.08 µM
  relative viability: 0.862
[7]; first compound 0.253 µM
  relative viability: 0.991
[7]; first compound 0.8 µM
  relative viability: 0.891
[7]; first compound 2.53 µM
  relative viability: 0.701
[7]; first compound 8 µM
  relative viability: 0.986
[8]; first compound 0.08 µM
  relative viability: 0.509
[8]; first compound 0.253 µM
  relative viability: 0.579
[8]; first compound 0.8 µM
  relative viability: 0.522
[8]; first compound 2.53 µM
  relative viability: 0.507
[8]; first compound 8 µM
  relative viability: 0.534
[9]; first compound 0.08 µM
  relative viability: 1.01
[9]; first compound 0.253 µM
  relative viability: 0.937
[9]; first compound 0.8 µM
  relative viability: 0.794
[9]; first compound 2.53 µM
  relative viability: 0.875
[9]; first compound 8 µM
  relative viability: 1.03

## C=C1C(=O)O[C@@H](CCCCCCCC)[C@@H]1C(=O)O [C-75] + Cc1nc(NC(=O)N2CCC[C@H]2C(N)=O)sc1-c1ccnc(C(C)(C)C(F)(F)F)c1 [Alpelisib] (partner 2 µM)
[1]; first compound 0.08 µM
  relative viability: 0.828
[1]; first compound 0.253 µM
  relative viability: 0.909
[1]; first compound 0.8 µM
  relative viability: 0.824
[1]; first compound 2.53 µM
  relative viability: 0.579
[1]; first compound 8 µM
  relative viability: 0.716
[2]; first compound 0.08 µM
  relative viability: 1.04
[2]; first compound 0.253 µM
  relative viability: 0.926
[2]; first compound 0.8 µM
  relative viability: 0.983
[2]; first compound 2.53 µM
  relative viability: 0.796
[2]; first compound 8 µM
  relative viability: 0.932
[3]; first compound 0.08 µM
  relative viability: 0.904
[3]; first compound 0.253 µM
  relative viability: 0.763
[3]; first compound 0.8 µM
  relative viability: 0.792
[3]; first compound 2.53 µM
  relative viability: 0.7
[3]; first compound 8 µM
  relative viability: 0.712
[4]; first compound 0.08 µM
  relative viability: 0.71
[4]; first compound 0.253 µM
  relative viability: 0.815
[4]; first compound 0.8 µM
  relative viability: 0.74
[4]; first compound 2.53 µM
  relative viability: 0.648
[4]; first compound 8 µM
  relative viability: 0.761
[5]; first compound 0.08 µM
  relative viability: 1.04
[5]; first compound 0.253 µM
  relative viability: 0.979
[5]; first compound 0.8 µM
  relative viability: 1.1
[5]; first compound 2.53 µM
  relative viability: 0.966
[5]; first compound 8 µM
  relative viability: 1.07
[6]; first compound 0.08 µM
  relative viability: 0.337
[6]; first compound 0.253 µM
  relative viability: 0.348
[6]; first compound 0.8 µM
  relative viability: 0.325
[6]; first compound 2.53 µM
  relative viability: 0.28
[6]; first compound 8 µM
  relative viability: 0.327
[7]; first compound 0.08 µM
  relative viability: 0.694
[7]; first compound 0.253 µM
  relative viability: 0.738
[7]; first compound 0.8 µM
  relative viability: 0.66
[7]; first compound 2.53 µM
  relative viability: 0.637
[7]; first compound 8 µM
  relative viability: 0.727
[8]; first compound 0.08 µM
  relative viability: 0.546
[8]; first compound 0.253 µM
  relative viability: 0.818
[8]; first compound 0.8 µM
  relative viability: 0.565
[8]; first compound 2.53 µM
  relative viability: 0.618
[8]; first compound 8 µM
  relative viability: 0.505
[9]; first compound 0.08 µM
  relative viability: 0.51
[9]; first compound 0.253 µM
  relative viability: 0.663
[9]; first compound 0.8 µM
  relative viability: 0.476
[9]; first compound 2.53 µM
  relative viability: 0.525
[9]; first compound 8 µM
  relative viability: 0.54

## C=C1C(=O)O[C@@H](CCCCCCCC)[C@@H]1C(=O)O [C-75] + C[C@]1(O)C[C@@H](c2nc(-c3ccc4ccc(-c5ccccc5)nc4c3)c3c(N)nccn32)C1 [Linsitinib] (partner 1 µM)
[1]; first compound 0.08 µM
  relative viability: 0.526
[1]; first compound 0.253 µM
  relative viability: 0.753
[1]; first compound 0.8 µM
  relative viability: 0.549
[1]; first compound 2.53 µM
  relative viability: 0.37
[1]; first compound 8 µM
  relative viability: 0.628
[2]; first compound 0.08 µM
  relative viability: 0.902
[2]; first compound 0.253 µM
  relative viability: 0.941
[2]; first compound 0.8 µM
  relative viability: 0.905
[2]; first compound 2.53 µM
  relative viability: 0.916
[2]; first compound 8 µM
  relative viability: 0.724
[3]; first compound 0.08 µM
  relative viability: 0.878
[3]; first compound 0.253 µM
  relative viability: 1.05
[3]; first compound 0.8 µM
  relative viability: 0.82
[3]; first compound 2.53 µM
  relative viability: 0.821
[3]; first compound 8 µM
  relative viability: 0.734
[4]; first compound 0.08 µM
  relative viability: 0.682
[4]; first compound 0.253 µM
  relative viability: 0.644
[4]; first compound 0.8 µM
  relative viability: 0.53
[4]; first compound 2.53 µM
  relative viability: 0.556
[4]; first compound 8 µM
  relative viability: 0.53
[5]; first compound 0.08 µM
  relative viability: 1.01
[5]; first compound 0.253 µM
  relative viability: 0.908
[5]; first compound 0.8 µM
  relative viability: 1.05
[5]; first compound 2.53 µM
  relative viability: 0.814
[5]; first compound 8 µM
  relative viability: 1.06
[6]; first compound 0.08 µM
  relative viability: 0.752
[6]; first compound 0.253 µM
  relative viability: 0.591
[6]; first compound 0.8 µM
  relative viability: 0.672
[6]; first compound 2.53 µM
  relative viability: 0.457
[6]; first compound 8 µM
  relative viability: 0.632
[7]; first compound 0.08 µM
  relative viability: 0.705
[7]; first compound 0.253 µM
  relative viability: 0.773
[7]; first compound 0.8 µM
  relative viability: 0.751
[7]; first compound 2.53 µM
  relative viability: 0.744
[7]; first compound 8 µM
  relative viability: 0.763
[8]; first compound 0.08 µM
  relative viability: 0.541
[8]; first compound 0.253 µM
  relative viability: 0.784
[8]; first compound 0.8 µM
  relative viability: 0.506
[8]; first compound 2.53 µM
  relative viability: 0.557
[8]; first compound 8 µM
  relative viability: 0.561
[9]; first compound 0.08 µM
  relative viability: 1.01
[9]; first compound 0.253 µM
  relative viability: 1.09
[9]; first compound 0.8 µM
  relative viability: 1.01
[9]; first compound 2.53 µM
  relative viability: 0.911
[9]; first compound 8 µM
  relative viability: 1.03
